The supplement of paper PMC12463676, “Small-molecule dissolution of stress granules by redox modulation benefits ALS models” (Nature Chemical Biology, 2025)

Experiments:
[1] = compound: O=[As]([O-])(O)O.[K+] [potassium arsenate]; assay: thermal stability z-score vs DMSO; higher = more thermally stabilized by treatment; conditions: HeLa; arsenate concentration 1 mM
Procedure: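 Cellular thermal proteome profiling in HeLa cells treated with 1 mM arsenate for 1 h (DMSO pretreatment), heated to ten temperatures (37-66.3 °C). Soluble protein was quantified by TMT mass spectrometry relative to DMSO controls; the thermal stability score was transformed to a z-score; mean of n = 3 experiments.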

[2] = compound: NC(=O)CCCCC1CCSS1 [lipoamide]; assay: as above; conditions: HeLa, lipoamide concentration 100 µM
Procedure: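 Cellular thermal proteome profiling in HeLa cells. Cells were treated with 100 µM lipoamide for 1 h, with or without 1 mM arsenate for a further 1 h, then heated to ten temperatures (37-66.3 °C), and soluble protein was quantified by TMT mass spectrometry relative to 0.1% DMSO controls. The thermal stability score (sum of log2 fold changes minus the abundance score) was transformed to a z-score; mean of n = 3 experiments.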

[3] = arsenate co-treatment: 1 mM arsenate 1 h
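Further: each temperature applied for 3 min, abundance score taken as mean log2 fold change at the two lowest temperatures, z-score obtained by mean subtraction and division by SD.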

Sequence of UniProt Q16186 (Q16186 whole entry): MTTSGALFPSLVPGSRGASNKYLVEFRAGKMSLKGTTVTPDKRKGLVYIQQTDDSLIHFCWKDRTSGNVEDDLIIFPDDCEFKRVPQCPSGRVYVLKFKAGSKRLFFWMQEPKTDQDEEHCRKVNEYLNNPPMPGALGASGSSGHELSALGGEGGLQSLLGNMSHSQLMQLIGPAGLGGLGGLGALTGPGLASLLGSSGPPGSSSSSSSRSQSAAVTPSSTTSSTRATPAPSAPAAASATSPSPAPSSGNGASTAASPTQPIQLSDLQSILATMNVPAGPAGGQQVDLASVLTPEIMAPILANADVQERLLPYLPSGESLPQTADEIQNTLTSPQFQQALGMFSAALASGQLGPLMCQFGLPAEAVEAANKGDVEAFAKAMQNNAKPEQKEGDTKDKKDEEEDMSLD
Sequence of UniProt P25098 (P25098 whole entry): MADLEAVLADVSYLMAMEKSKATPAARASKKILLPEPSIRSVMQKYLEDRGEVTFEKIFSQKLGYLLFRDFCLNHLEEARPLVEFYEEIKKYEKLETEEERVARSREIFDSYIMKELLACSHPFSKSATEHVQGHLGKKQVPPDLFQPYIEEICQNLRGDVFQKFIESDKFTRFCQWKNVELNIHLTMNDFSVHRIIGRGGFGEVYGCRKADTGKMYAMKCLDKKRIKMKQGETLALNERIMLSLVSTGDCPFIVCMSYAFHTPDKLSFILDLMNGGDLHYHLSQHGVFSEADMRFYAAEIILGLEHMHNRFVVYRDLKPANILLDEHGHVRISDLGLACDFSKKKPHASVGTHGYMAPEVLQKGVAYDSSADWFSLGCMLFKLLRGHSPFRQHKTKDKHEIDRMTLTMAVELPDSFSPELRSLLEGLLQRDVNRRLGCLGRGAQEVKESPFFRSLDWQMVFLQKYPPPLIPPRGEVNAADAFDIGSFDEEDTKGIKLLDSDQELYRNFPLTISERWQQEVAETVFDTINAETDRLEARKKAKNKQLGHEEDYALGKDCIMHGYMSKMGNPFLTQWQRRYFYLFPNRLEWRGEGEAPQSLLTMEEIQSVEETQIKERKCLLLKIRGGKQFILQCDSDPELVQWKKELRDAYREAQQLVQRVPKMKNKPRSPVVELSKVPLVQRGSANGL
Sequence of UniProt Q8IZP9 (Q8IZP9 whole entry): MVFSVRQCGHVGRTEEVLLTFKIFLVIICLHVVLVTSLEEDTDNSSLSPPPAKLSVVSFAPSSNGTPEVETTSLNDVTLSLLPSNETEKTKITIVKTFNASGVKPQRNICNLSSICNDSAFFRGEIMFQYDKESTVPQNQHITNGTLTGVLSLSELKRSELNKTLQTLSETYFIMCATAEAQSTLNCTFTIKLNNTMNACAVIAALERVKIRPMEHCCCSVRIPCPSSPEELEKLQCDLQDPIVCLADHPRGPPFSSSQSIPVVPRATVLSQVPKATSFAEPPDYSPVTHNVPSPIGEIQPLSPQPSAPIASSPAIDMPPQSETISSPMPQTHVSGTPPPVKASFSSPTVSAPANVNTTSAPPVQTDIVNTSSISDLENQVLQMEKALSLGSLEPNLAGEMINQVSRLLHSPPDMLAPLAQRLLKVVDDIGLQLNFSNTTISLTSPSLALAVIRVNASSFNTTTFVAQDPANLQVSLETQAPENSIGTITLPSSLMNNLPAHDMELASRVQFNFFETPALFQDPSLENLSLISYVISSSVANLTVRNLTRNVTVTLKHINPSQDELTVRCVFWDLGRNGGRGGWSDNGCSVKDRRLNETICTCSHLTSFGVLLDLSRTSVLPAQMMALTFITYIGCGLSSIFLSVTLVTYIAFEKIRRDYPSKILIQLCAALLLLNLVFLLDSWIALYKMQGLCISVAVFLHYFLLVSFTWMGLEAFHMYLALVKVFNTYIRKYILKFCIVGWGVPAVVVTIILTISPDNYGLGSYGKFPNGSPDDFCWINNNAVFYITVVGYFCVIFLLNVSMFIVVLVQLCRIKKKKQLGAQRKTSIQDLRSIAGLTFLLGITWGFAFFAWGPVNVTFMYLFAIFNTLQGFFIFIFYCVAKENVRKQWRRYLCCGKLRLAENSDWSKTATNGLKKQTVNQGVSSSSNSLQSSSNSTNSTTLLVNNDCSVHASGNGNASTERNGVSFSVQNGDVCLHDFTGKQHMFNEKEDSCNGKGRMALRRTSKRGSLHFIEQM
Sequence of UniProt Q9NRZ7 (Q9NRZ7 whole entry): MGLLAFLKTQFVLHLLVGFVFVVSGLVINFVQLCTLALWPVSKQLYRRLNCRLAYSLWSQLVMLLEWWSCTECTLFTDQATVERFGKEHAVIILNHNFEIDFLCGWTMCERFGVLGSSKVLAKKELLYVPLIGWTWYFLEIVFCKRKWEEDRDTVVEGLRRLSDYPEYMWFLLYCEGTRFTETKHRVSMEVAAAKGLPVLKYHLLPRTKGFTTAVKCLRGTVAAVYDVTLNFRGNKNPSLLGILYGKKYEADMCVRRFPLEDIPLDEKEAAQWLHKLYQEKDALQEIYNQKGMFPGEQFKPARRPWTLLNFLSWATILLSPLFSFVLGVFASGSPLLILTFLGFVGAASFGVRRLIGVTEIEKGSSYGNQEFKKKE
Sequence of UniProt Q96SZ5 (Q96SZ5 whole entry): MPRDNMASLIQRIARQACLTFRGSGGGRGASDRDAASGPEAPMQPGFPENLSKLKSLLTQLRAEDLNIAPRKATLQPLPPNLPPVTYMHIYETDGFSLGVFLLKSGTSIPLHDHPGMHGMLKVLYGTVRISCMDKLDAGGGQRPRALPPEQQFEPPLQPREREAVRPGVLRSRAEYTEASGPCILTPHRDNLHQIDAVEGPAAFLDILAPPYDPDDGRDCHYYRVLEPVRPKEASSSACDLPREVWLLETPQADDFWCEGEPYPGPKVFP
Sequence of UniProt O15120 (O15120 whole entry): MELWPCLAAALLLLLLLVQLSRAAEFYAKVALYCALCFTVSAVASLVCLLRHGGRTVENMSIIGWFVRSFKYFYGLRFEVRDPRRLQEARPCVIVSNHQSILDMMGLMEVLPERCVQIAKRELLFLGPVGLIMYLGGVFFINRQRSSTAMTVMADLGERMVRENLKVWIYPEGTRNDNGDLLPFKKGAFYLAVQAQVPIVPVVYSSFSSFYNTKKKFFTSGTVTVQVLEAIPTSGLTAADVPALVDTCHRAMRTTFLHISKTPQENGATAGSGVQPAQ
Sequence of UniProt Q9BRR6 (Q9BRR6 whole entry): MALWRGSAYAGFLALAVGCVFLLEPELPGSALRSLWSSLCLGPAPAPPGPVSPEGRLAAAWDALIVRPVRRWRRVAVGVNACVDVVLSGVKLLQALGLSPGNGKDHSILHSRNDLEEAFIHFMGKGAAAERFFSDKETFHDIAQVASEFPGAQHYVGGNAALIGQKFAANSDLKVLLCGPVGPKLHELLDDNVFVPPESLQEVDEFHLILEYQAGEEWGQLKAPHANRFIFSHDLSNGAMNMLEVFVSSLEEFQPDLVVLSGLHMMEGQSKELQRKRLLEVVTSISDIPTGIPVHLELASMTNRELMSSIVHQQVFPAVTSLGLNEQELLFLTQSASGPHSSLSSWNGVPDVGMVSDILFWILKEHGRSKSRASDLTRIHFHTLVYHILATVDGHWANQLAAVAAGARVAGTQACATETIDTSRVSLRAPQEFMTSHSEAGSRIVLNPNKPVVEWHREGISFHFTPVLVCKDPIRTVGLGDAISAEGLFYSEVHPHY
Sequence of UniProt Q9NUQ2 (Q9NUQ2 whole entry): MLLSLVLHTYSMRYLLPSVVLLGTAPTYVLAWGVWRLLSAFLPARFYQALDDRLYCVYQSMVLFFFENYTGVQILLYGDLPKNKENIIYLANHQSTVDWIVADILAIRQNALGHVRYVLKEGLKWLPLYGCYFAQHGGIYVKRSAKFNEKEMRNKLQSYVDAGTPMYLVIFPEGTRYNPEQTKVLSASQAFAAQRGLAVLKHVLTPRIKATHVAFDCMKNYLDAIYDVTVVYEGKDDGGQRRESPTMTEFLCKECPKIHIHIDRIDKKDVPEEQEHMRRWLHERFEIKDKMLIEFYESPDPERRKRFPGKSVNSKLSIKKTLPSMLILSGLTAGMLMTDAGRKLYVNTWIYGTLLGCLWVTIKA
Sequence of UniProt Q08117 (Q08117 whole entry): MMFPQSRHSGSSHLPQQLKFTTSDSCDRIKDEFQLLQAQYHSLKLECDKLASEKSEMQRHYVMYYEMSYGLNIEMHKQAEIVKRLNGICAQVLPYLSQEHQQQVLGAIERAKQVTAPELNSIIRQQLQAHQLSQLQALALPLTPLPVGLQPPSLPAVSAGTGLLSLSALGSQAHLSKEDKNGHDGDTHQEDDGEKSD
Sequence of UniProt Q53H12 (Q53H12 whole entry): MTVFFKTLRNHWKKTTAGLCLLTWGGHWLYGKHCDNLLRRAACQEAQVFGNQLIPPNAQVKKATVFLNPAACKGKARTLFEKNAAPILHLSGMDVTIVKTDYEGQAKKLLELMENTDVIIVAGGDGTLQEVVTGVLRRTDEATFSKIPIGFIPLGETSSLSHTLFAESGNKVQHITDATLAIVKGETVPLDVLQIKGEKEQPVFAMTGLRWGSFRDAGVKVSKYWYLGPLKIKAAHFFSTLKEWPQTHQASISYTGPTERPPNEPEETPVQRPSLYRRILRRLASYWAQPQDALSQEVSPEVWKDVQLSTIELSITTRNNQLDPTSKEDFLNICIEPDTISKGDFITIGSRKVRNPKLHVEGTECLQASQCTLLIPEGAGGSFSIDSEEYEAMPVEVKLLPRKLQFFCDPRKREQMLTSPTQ
Sequence of UniProt P30520 (P30520 whole entry): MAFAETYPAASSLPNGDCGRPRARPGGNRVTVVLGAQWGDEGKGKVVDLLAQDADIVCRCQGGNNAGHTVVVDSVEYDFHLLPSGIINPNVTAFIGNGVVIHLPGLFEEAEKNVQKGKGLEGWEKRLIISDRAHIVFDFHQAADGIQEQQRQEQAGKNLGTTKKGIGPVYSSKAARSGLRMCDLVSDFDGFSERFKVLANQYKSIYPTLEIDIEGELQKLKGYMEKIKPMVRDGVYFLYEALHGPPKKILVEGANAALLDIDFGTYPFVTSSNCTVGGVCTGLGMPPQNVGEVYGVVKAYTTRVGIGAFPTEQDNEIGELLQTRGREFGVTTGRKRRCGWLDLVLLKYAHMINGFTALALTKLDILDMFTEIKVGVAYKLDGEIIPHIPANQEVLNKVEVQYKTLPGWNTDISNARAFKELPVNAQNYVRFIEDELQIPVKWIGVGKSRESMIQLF

For ADGRG2 (UniProt Q8IZP9), the thermal stability z-score [1] was -0.592, the thermal stability z-score [2, 3] was -0.0216 and the thermal stability z-score ([2]; arsenate co-treatment: none) was 0.386.
With ADH5 (UniProt P11766) the thermal stability z-score [1] was -1.99, the thermal stability z-score [2, 3] was 1.89 and the thermal stability z-score ([2]; arsenate co-treatment: none) was 0.761.
With ADI1 (UniProt Q9BV57) the thermal stability z-score [1] was -0.317, the thermal stability z-score [2, 3] was 0.768 and the thermal stability z-score ([2]; arsenate co-treatment: none) was 0.913.
ADK (UniProt P55263) was tested, and the thermal stability z-score [1] was -1.35, the thermal stability z-score [2, 3] was -0.131 and the thermal stability z-score ([2]; arsenate co-treatment: none) was -0.279.
ADNP (UniProt Q9H2P0) was tested, and the thermal stability z-score [1] was -0.271, the thermal stability z-score [2, 3] was -0.0133 and the thermal stability z-score ([2]; arsenate co-treatment: none) was -0.0224.
ADO (UniProt Q96SZ5) gave a thermal stability z-score [1] of -0.401, a thermal stability z-score [2, 3] of 1.62 and a thermal stability z-score ([2]; arsenate co-treatment: none) of 1.31.
Work on ADPGK (UniProt Q9BRR6) yielded a thermal stability z-score [1] of -0.315, a thermal stability z-score [2, 3] of -1.02 and a thermal stability z-score ([2]; arsenate co-treatment: none) of -0.44.
Target ADPRHL2 (UniProt Q9NX46) has a thermal stability z-score [1] of -0.268, a thermal stability z-score [2, 3] of 0.435 and a thermal stability z-score ([2]; arsenate co-treatment: none) of -0.109.
Work on ADRBK1 (UniProt P25098) yielded a thermal stability z-score [1] of 0.052, a thermal stability z-score [2, 3] of 0.556 and a thermal stability z-score ([2]; arsenate co-treatment: none) of 0.421.
For ADRM1 (UniProt Q16186), the thermal stability z-score [1] was 0.823, the thermal stability z-score [2, 3] was 1.21 and the thermal stability z-score ([2]; arsenate co-treatment: none) was 0.976.
Target ADSL (UniProt P30566) has a thermal stability z-score [1] of -1.53, a thermal stability z-score [2, 3] of -0.0252 and a thermal stability z-score ([2]; arsenate co-treatment: none) of -0.429.
Target ADSS (UniProt P30520) has a thermal stability z-score [1] of -1.32, a thermal stability z-score [2, 3] of 0.449 and a thermal stability z-score ([2]; arsenate co-treatment: none) of -0.203.
ADSSL1 (UniProt Q8N142) was tested, and the thermal stability z-score [1] was 0.237, the thermal stability z-score [2, 3] was 0.111 and the thermal stability z-score ([2]; arsenate co-treatment: none) was 0.223.
AEBP2 (UniProt Q6ZN18) gave a thermal stability z-score [1] of -0.00304, a thermal stability z-score [2, 3] of -0.0576 and a thermal stability z-score ([2]; arsenate co-treatment: none) of -0.195.
AES (UniProt Q08117) showed a thermal stability z-score [1] of 0.378, a thermal stability z-score [2, 3] of 0.656 and a thermal stability z-score ([2]; arsenate co-treatment: none) of 0.111.
Target AFAP1 (UniProt Q8N556) has a thermal stability z-score [1] of -0.957, a thermal stability z-score [2, 3] of 0.411 and a thermal stability z-score ([2]; arsenate co-treatment: none) of -0.0977.
With AFG3L2 (UniProt Q9Y4W6) the thermal stability z-score [1] was -0.123, the thermal stability z-score [2, 3] was -0.688 and the thermal stability z-score ([2]; arsenate co-treatment: none) was -0.0469.
AFTPH (UniProt Q6ULP2) was tested, and the thermal stability z-score [1] was 0.102, the thermal stability z-score [2, 3] was -0.18 and the thermal stability z-score ([2]; arsenate co-treatment: none) was 0.15.
AGAP1 (UniProt Q9UPQ3) gave a thermal stability z-score [1] of -1.91, a thermal stability z-score [2, 3] of -1.59 and a thermal stability z-score ([2]; arsenate co-treatment: none) of -2.08.
AGAP3 (UniProt Q96P47) showed a thermal stability z-score [1] of -0.25, a thermal stability z-score [2, 3] of 0.0887 and a thermal stability z-score ([2]; arsenate co-treatment: none) of -0.377.
For AGFG1 (UniProt P52594), the thermal stability z-score [1] was -0.387, the thermal stability z-score [2, 3] was -0.348 and the thermal stability z-score ([2]; arsenate co-treatment: none) was -0.424.
In the case of AGFG2 (UniProt O95081), the thermal stability z-score [1] is reported as -0.791, the thermal stability z-score [2, 3] is reported as -0.423 and the thermal stability z-score ([2]; arsenate co-treatment: none) is reported as -0.0283.
AGK (UniProt Q53H12) was tested, and the thermal stability z-score [1] was 0.573, the thermal stability z-score [2, 3] was 0.541 and the thermal stability z-score ([2]; arsenate co-treatment: none) was 0.38.
For AGL (UniProt P35573), the thermal stability z-score [1] was 0.0621, the thermal stability z-score [2, 3] was 0.414 and the thermal stability z-score ([2]; arsenate co-treatment: none) was 0.398.
AGMAT (UniProt Q9BSE5) gave a thermal stability z-score [1] of 0.92, a thermal stability z-score [2, 3] of 0.292 and a thermal stability z-score ([2]; arsenate co-treatment: none) of 0.565.
AGO1 (UniProt Q9UL18) gave a thermal stability z-score [1] of -0.337, a thermal stability z-score [2, 3] of -0.0919 and a thermal stability z-score ([2]; arsenate co-treatment: none) of -0.396.
AGO2 (UniProt Q9UKV8) showed a thermal stability z-score [1] of -0.204, a thermal stability z-score [2, 3] of 0.826 and a thermal stability z-score ([2]; arsenate co-treatment: none) of 0.402.
With AGPAT1 (UniProt Q99943) the thermal stability z-score [1] was 0.0795, the thermal stability z-score [2, 3] was -0.0471 and the thermal stability z-score ([2]; arsenate co-treatment: none) was -0.591.
AGPAT2 (UniProt O15120) was tested, and the thermal stability z-score [1] was 0.392, the thermal stability z-score [2, 3] was -0.401 and the thermal stability z-score ([2]; arsenate co-treatment: none) was 0.198.
AGPAT3 (UniProt Q9NRZ7) showed a thermal stability z-score [1] of -0.114, a thermal stability z-score [2, 3] of -0.336 and a thermal stability z-score ([2]; arsenate co-treatment: none) of 0.305.
AGPAT5 (UniProt Q9NUQ2) was tested, and the thermal stability z-score [1] was -0.259, the thermal stability z-score [2, 3] was -0.478 and the thermal stability z-score ([2]; arsenate co-treatment: none) was -0.94.
AGPS (UniProt O00116) gave a thermal stability z-score [1] of -0.854, a thermal stability z-score [2, 3] of -1.96 and a thermal stability z-score ([2]; arsenate co-treatment: none) of -1.23.
Target AGR2 (UniProt O95994) has a thermal stability z-score [1] of -0.355, a thermal stability z-score [2, 3] of -2.84 and a thermal stability z-score ([2]; arsenate co-treatment: none) of -2.57.
AGRN (UniProt O00468) showed a thermal stability z-score [1] of 0.582, a thermal stability z-score [2, 3] of -0.718 and a thermal stability z-score ([2]; arsenate co-treatment: none) of -1.6.
In the case of AGTRAP (UniProt Q6RW13), the thermal stability z-score [1] is reported as 1.66, the thermal stability z-score [2, 3] is reported as 0.719 and the thermal stability z-score ([2]; arsenate co-treatment: none) is reported as 0.743.
Target AHCY (UniProt P23526) has a thermal stability z-score [1] of -1.82, a thermal stability z-score [2, 3] of 0.488 and a thermal stability z-score ([2]; arsenate co-treatment: none) of 0.146.
